Source: ChEMBL document CHEMBL1201862, “PubChem BioAssay data set” (2004)
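Dose response: 5 concentrations. Exposure: 48 h. Format: 96-well plates. Endpoint: linear interpolation; highest concentration if not reached. At the GI50, growth is halved.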 Calls of active or inactive are those of the source. No stated cut-off is given here; in the data, active = GI50 up to about 1.1 µM and inactive = higher.

Experiments:
Assay in all cases: NCI-60 cell line screen, 48 h
[1] = tested on: SNB-78
[2] = tested on: HL-60
[3] = tested on: KM12
[4] = tested on: HOP-92
[5] = tested on: RPMI-8226
[6] = tested on: OVCAR-4
[7] = tested on: A549
[8] = tested on: U-251
[9] = tested on: M14
[10] = tested on: EKVX
[11] = tested on: CCRF-CEM
[12] = tested on: KM-20L2
[13] = tested on: HCT-116
[14] = tested on: SF-295
[15] = tested on: 786-0
[16] = tested on: CAKI-1
[17] = tested on: OVCAR-3
[18] = tested on: A498
[19] = tested on: SNB-75
[20] = tested on: SW-620
[21] = tested on: UO-31
[22] = tested on: NCI-H522
[23] = tested on: SK-MEL-28
[24] = tested on: DMS-273
[25] = tested on: COLO 205
[26] = tested on: HCT-15
[27] = tested on: SN12C
[28] = tested on: ACHN
[29] = tested on: RXF 393
[30] = tested on: K562
[31] = tested on: NCI-H23
[32] = tested on: XF498
[33] = tested on: DLD-1
[34] = tested on: NCI-H460
[35] = tested on: SK-OV-3
[36] = tested on: LOX IMVI
[37] = tested on: SK-MEL-2
[38] = tested on: SK-MEL-5
[39] = tested on: SF-268
[40] = tested on: MOLT-4
[41] = tested on: TK-10
[42] = tested on: SNB-19
[43] = tested on: M19-MEL
[44] = tested on: UACC-257
[45] = tested on: OVCAR-8
[46] = tested on: UACC-62
[47] = tested on: DMS-114
[48] = tested on: SR
[49] = tested on: LXFL 529
[50] = tested on: HOP-62

O=C1c2ccccc2C(=O)N1CCN(CCN1C(=O)c2ccccc2C1=O)Cc1ccccc1
GI50 [1]: > 100 µM (inactive)
GI50 [2]: > 100 µM (inactive)
GI50 [3]: > 100 µM (inactive)
GI50 [4]: 68.2 µM (inactive)
GI50 [5]: > 100 µM (inactive)
GI50 [6]: > 100 µM (inactive)
GI50 [7]: > 100 µM (inactive)
GI50 [8]: > 100 µM (inactive)
GI50 [9]: > 100 µM (inactive)
GI50 [10]: > 100 µM (inactive)
GI50 [11]: > 100 µM (inactive)
GI50 [12]: > 100 µM (inactive)
GI50 [13]: > 100 µM (inactive)
GI50 [14]: > 100 µM (inactive)
GI50 [15]: > 100 µM (inactive)
GI50 [16]: > 100 µM (inactive)
GI50 [17]: > 100 µM (inactive)
GI50 [18]: > 100 µM (inactive)
GI50 [19]: > 10 µM (inactive)
GI50 [20]: > 100 µM (inactive)
GI50 [21]: > 100 µM (inactive)
GI50 [22]: > 100 µM (inactive)
GI50 [23]: > 100 µM (inactive)
GI50 [24]: > 100 µM (inactive)
GI50 [25]: > 100 µM (inactive)
GI50 [26]: > 100 µM
GI50 [27]: > 100 µM (inactive)
GI50 [28]: > 100 µM (inactive)
GI50 [29]: > 100 µM (inactive)
GI50 [30]: > 100 µM (inactive)
GI50 [31]: > 100 µM (inactive)
GI50 [32]: > 100 µM (inactive)
GI50 [33]: > 100 µM (inactive)
GI50 [34]: > 100 µM (inactive)
GI50 [35]: > 100 µM (inactive)
GI50 [36]: > 100 µM (inactive)
GI50 [37]: > 100 µM (inactive)
GI50 [38]: > 100 µM (inactive)
GI50 [39]: > 100 µM (inactive)
GI50 [40]: > 100 µM (inactive)
GI50 [41]: > 100 µM (inactive)
GI50 [42]: > 100 µM (inactive)
GI50 [43]: > 100 µM (inactive)
GI50 [44]: > 100 µM (inactive)
GI50 [45]: > 100 µM (inactive)
GI50 [46]: 36.7 µM (inactive)
GI50 [47]: > 100 µM (inactive)
GI50 [48]: > 100 µM (inactive)
GI50 [49]: > 100 µM (inactive)
GI50 [50]: > 100 µM (inactive)
